Assay results taken from ChEMBL document CHEMBL1156533 (2007).
Each block holds one molecule with its values, some of them ahead of it. Calls of active or inactive are those of the source. No cut-off for these calls is given here.

Tests used:
Mus musculus [1] = species: Mus musculus; assay: Antiasthmatic effect in ovalbumin-challenged BALB/c mouse assessed as decrease in eosinophil infiltration in bronchoalveolar lavage fluid; format: functional, Lung
Mus musculus [2] = species: Mus musculus; assay: Antiasthmatic effect in ovalbumin-challenged BALB/c mouse assessed as decrease in IL5 level in bronchoalveolar lavage fluid by ELISA; format: functional, Lung
Mus musculus [3] = species: Mus musculus; assay: Antiasthmatic effect in ovalbumin-challenged BALB/c mouse assessed as decrease in IL13 level in bronchoalveolar lavage fluid by ELISA; format: functional, Lung
[4] = Inhibition of IL5 production in transgenic BALB/c mouse TH2 cells at 500 uM after 48 hrs; format: functional
[5] = Inhibition of IL13 production in transgenic BALB/c mouse TH2 cells at 500 uM after 48 hrs; format: functional
[6] = Inhibition of IL10 production in transgenic BALB/c mouse TH2 cells at 500 uM after 48 hrs; format: functional
[7] = Inhibition of IL4 production in transgenic BALB/c mouse TH2 cells at 500 uM after 48 hrs; format: functional
Mus musculus [8] = species: Mus musculus; assay: Antiasthmatic effect in ovalbumin-challenged BALB/c mouse assessed as decrease in eosinophil infiltration in bronchoalveolar lavage fluid at 100 ug; format: functional, Lung
Mus musculus [9] = species: Mus musculus; assay: Antiasthmatic effect in ovalbumin-challenged BALB/c mouse assessed as decrease in IL5 level in bronchoalveolar lavage fluid at 100 ug by ELISA; format: functional, Lung
Mus musculus [10] = species: Mus musculus; assay: Antiasthmatic effect in ovalbumin-challenged BALB/c mouse assessed as decrease in IL13 level in bronchoalveolar lavage fluid at 100 ug by ELISA; format: functional, Lung
Mus musculus [11] = species: Mus musculus; assay: Antiasthmatic effect in ovalbumin-challenged BALB/c mouse assessed as decrease in eosinophil infiltration in bronchoalveolar lavage fluid at 25 ug; format: functional, Lung
Mus musculus [12] = species: Mus musculus; assay: Antiasthmatic effect in ovalbumin-challenged BALB/c mouse assessed as decrease in IL5 level in bronchoalveolar lavage fluid at 25 ug by ELISA; format: functional, Lung
Mus musculus [13] = species: Mus musculus; assay: Antiasthmatic effect in ovalbumin-challenged BALB/c mouse assessed as decrease in IL13 level in bronchoalveolar lavage fluid at 25 ug by ELISA; format: functional, Lung
Mus musculus [14] = species: Mus musculus; assay: Antiasthmatic effect in ovalbumin-challenged BALB/c mouse assessed as decrease in eosinophil infiltration in bronchoalveolar lavage fluid at 6 ug; format: functional, Lung
Mus musculus [15] = species: Mus musculus; assay: Antiasthmatic effect in ovalbumin-challenged BALB/c mouse assessed as decrease in IL5 level in bronchoalveolar lavage fluid at 6 ug by ELISA; format: functional, Lung
Mus musculus [16] = species: Mus musculus; assay: Antiasthmatic effect in ovalbumin-challenged BALB/c mouse assessed as decrease in IL13 level in bronchoalveolar lavage fluid at 6 ug by ELISA; format: functional, Lung
Mus musculus [17] = assay: Antiasthmatic effect in ovalbumin-challenged transgenic TH2 cells transfected SCID mouse assessed as decrease in eosinophil infiltration in bronchoalveolar lavage fluid at 100 ug administered 4-6 hrs after challenge; format: functional, Lung
Mus musculus [18] = assay: Antiasthmatic effect in ovalbumin-challenged transgenic TH2 cells transfected SCID mouse assessed as decrease in IL5 level in bronchoalveolar lavage fluid at 100 ug administered 4-6 hrs after challenge by ELISA; format: functional, Lung
Mus musculus [19] = assay: Antiasthmatic effect in ovalbumin-challenged transgenic TH2 cells transfected SCID mouse assessed as decrease in IL13 level in bronchoalveolar lavage fluid at 100 ug administered 4-6 hrs after challenge by ELISA; format: functional, Lung
TH2 [20] = assay: Induction of apoptosis in ovalbumin-challenged transgenic BALB/c mouse TH2 cells transfected in SCID mouse assessed as decrease in viable cell in lungs; format: functional, cell-based
Mus musculus [21] = assay: Antiasthmatic activity in ovalbumin-challenged BALB/c mouse assessed as reduction in airway resistance at 100 ug, intratracheally administered 4 hrs after challenge; format: functional, organism-based
Mus musculus [22] = species: Mus musculus; assay: Antiasthmatic effect in ovalbumin-challenged BALB/c mouse assessed as decrease in peribronchial eosinophil infiltration in bronchoalveolar lavage fluid; format: functional, organism-based; settings: Lung
Mus musculus [23] = species: Mus musculus; assay: Antiasthmatic effect in ovalbumin-challenged BALB/c mouse assessed as decrease in perivascular eosinophil infiltration in bronchoalveolar lavage fluid; format: functional, organism-based; settings: Lung
[24] = Inhibition of IL4 production in transgenic BALB/c mouse TH2 cells at 100 uM after 48 hrs; format: functional
[25] = Inhibition of IL4 production in transgenic BALB/c mouse TH2 cells at 50 uM after 48 hrs; format: functional
[26] = Inhibition of IL4 production in transgenic BALB/c mouse TH2 cells at 10 uM after 48 hrs; format: functional
[27] = Inhibition of IL5 production in transgenic BALB/c mouse TH2 cells at 100 uM after 48 hrs; format: functional
[28] = Inhibition of IL5 production in transgenic BALB/c mouse TH2 cells at 50 uM after 48 hrs; format: functional
[29] = Inhibition of IL5 production in transgenic BALB/c mouse TH2 cells at 10 uM after 48 hrs; format: functional
[30] = Inhibition of IL13 production in transgenic BALB/c mouse TH2 cells at 100 uM after 48 hrs; format: functional
[31] = Inhibition of IL13 production in transgenic BALB/c mouse TH2 cells at 50 uM after 48 hrs; format: functional
[32] = Inhibition of IL13 production in transgenic BALB/c mouse TH2 cells at 10 uM after 48 hrs; format: functional
[33] = Inhibition of IL10 production in transgenic BALB/c mouse TH2 cells at 100 uM after 48 hrs; format: functional
[34] = Inhibition of IL10 production in transgenic BALB/c mouse TH2 cells at 50 uM after 48 hrs; format: functional
[35] = Inhibition of IL10 production in transgenic BALB/c mouse TH2 cells at 10 uM after 48 hrs; format: functional
TH2 [36] = assay: Antiproliferative activity in transgenic BALB/c mouse TH2 cells assessed as [3H]thymidine incorporation after […]; format: functional, cell-based
TH2 [37] = assay: Induction of apoptosis in transgenic BALB/c mouse TH2 cells after 48 hrs by FACS; format: functional, cell-based
Jurkat [38] = assay: Induction of apoptosis in human Jurkat cells after 48 hrs by FACS; format: functional, cell-based
Dendritic cell = assay: Induction of apoptosis in LPS-stimulated BALB/c mouse bone marrow-derived dendritic cells after 48 hrs by ELISA; format: functional, cell-based
Mus musculus [39] = assay: Antiasthmatic activity in ovalbumin-challenged BALB/c mouse assessed as reduction in airway hyperresponsiveness at 100 ug, intratracheally administered 4 hrs after challenge; format: functional, organism-based
TH2 [40] = assay: Inhibition of TCR-mediated NF-kappaB activation in transgenic BALB/c mouse TH2 cells at 100 uM by EMSA; format: cell-based
TH2 [41] = assay: Inhibition of TCR-mediated JNK1 activation in transgenic BALB/c mouse TH2 cells at 100 uM by in vitro kinase assay; format: cell-based
TH2 [42] = assay: Inhibition of TCR-mediated ERK activation in transgenic BALB/c mouse TH2 cells at 100 uM by Western blotting; format: cell-based
TH2 [43] = assay: Inhibition of TCR-mediated NFAT activation in transgenic BALB/c mouse TH2 cells at 100 uM by Western blotting; format: cell-based
Jurkat [44] = assay: Inhibition of TCR-mediated NF-kappaB activation in human Jurkat cells at 100 uM by EMSA; format: cell-based
Jurkat [45] = assay: Inhibition of TCR-mediated JNK1 activation in human Jurkat cells at 100 uM by in vitro kinase assay; format: cell-based
Jurkat [46] = assay: Inhibition of TCR-mediated ERK activation in human Jurkat cells at 100 uM by Western blotting; format: cell-based
Jurkat [47] = assay: Inhibition of TCR-mediated NFAT activation in human Jurkat cells at 100 uM by Western blotting; format: cell-based
Jurkat [48] = assay: Inhibition of TCR-mediated IkappaB degradation in human Jurkat cells after 30 mins by immunoblotting; format: cell-based
HEK293 [49] = assay: Inhibition of PKC-theta-induced NF-kappaB activation in HEK293 cells by luciferase reporter gene assay; format: functional, cell-based; settings: Homo sapiens
HEK293 [50] = assay: Inhibition of Carma1-induced NF-kappaB activation in HEK293 cells by luciferase reporter gene assay; format: functional, cell-based; settings: Homo sapiens
HEK293 [51] = assay: Inhibition of Bcl10-induced NF-kappaB activation in HEK293 cells by luciferase reporter gene assay; format: functional, cell-based; settings: Homo sapiens
[52] = target: T-cell-specific surface glycoprotein CD28 (Homo sapiens) (UniProt P10747); assay: Inhibition of CD28-induced NF-kappaB activation in human Jurkat cells by EMSA; format: functional, cell-based
Jurkat [53] = assay: Inhibition of CD3/CD28-induced NF-kappaB activation in human Jurkat cells by EMSA; format: cell-based
[54] = Inhibition of IFN-gamma production in transgenic TH1 cells at 500 uM after 48 hrs; format: functional
[55] = Inhibition of IFN-gamma production in transgenic TH1 cells at 100 uM after 48 hrs; format: functional
[56] = Inhibition of IFN-gamma production in transgenic TH1 cells at 50 uM after 48 hrs; format: functional
[57] = Inhibition of IFN-gamma production in transgenic TH1 cells at 10 uM after 48 hrs; format: functional
TH1 = assay: Induction of apoptosis in transgenic TH1 cells after 48 hrs by FACS; format: functional, cell-based
[58] = target: 3-phosphoinositide-dependent protein kinase 1 (Homo sapiens) (UniProt O15530); assay: Inhibition of recombinant PDK1 autophosphorylation by in vitro kinase assay
[59] = target: 3-phosphoinositide-dependent protein kinase 1 (Homo sapiens) (UniProt O15530); assay: Inhibition of PDK1 phosphorylation in human Jurkat cells by Western blotting

Sequence of 3-phosphoinositide-dependent protein kinase 1 (Homo sapiens) (O15530 whole entry, looked up): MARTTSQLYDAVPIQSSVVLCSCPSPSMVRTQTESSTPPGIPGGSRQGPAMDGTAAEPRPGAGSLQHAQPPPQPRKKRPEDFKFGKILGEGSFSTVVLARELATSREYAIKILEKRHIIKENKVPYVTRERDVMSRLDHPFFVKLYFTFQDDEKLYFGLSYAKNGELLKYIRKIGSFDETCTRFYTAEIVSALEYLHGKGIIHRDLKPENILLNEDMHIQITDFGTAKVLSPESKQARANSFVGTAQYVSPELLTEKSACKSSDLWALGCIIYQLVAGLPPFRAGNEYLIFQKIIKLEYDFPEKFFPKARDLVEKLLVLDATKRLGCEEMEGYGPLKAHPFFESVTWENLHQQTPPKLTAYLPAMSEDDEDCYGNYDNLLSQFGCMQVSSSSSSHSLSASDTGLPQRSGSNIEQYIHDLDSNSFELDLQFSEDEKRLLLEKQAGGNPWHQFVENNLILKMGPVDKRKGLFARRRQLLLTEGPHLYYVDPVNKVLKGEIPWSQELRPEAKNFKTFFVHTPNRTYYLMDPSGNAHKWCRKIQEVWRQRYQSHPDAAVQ
Sequence of T-cell-specific surface glycoprotein CD28 (Homo sapiens) (P10747 whole entry): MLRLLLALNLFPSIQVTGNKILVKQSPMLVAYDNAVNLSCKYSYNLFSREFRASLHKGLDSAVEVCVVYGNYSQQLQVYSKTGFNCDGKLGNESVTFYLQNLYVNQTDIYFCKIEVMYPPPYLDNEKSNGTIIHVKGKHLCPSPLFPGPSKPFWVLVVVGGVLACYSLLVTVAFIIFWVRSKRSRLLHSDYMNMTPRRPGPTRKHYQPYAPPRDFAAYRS

SMILES: O=C(O)c1cccnc1C(=O)O [QUINOLINIC ACID]
Activity (Mus musculus [1]): 335000
Activity (Mus musculus [2]): 312 pg/mL
Activity (Mus musculus [3]): 263 pg/mL
Activity [4]: 4.19 ng/mL
Activity [5]: 15.4 ng/mL
Activity [6]: 8.36 ng/mL
Activity [7]: 11.3 ng/mL

Activity [52]: Active
Activity [58]: Dose-dependent effect
Activity [59]: Active
SMILES: Nc1c(O)cccc1C(=O)O
Activity (Mus musculus [8]): 84000
Activity (Mus musculus [9]): 153 pg/mL
Activity (Mus musculus [10]): 88 pg/mL
Activity (Mus musculus [11]): 58000
Activity (Mus musculus [12]): 144 pg/mL
Activity (Mus musculus [13]): 91 pg/mL
Activity (Mus musculus [14]): 190000
Activity (Mus musculus [15]): 219 pg/mL
Activity (Mus musculus [16]): 147 pg/mL
Activity (Mus musculus [17]): 11000
Activity (Mus musculus [18]): <10 pg/mL
Activity (Mus musculus [19]): <10 pg/mL
Activity (TH2 [20]): Active
Activity (Mus musculus [21]): Active
Activity (Mus musculus [1]): 155000
Activity (Mus musculus [2]): 141 pg/mL
Activity (Mus musculus [3]): 66 pg/mL
Activity (Mus musculus [22]): Active
Activity (Mus musculus [23]): Active
Activity [24]: 2 ng/mL
Activity [25]: 6.7 ng/mL
Activity [26]: 11.5 ng/mL
Activity [27]: <0.1 ng/mL
Activity [28]: 1.15 ng/mL
Activity [29]: 3.24 ng/mL
Activity [30]: 1.7 ng/mL
Activity [31]: 4.3 ng/mL
Activity [32]: 14.9 ng/mL
Activity [33]: 2.37 ng/mL
Activity [34]: 4.88 ng/mL
Activity [35]: 7.77 ng/mL
Activity (TH2 [36]): Active
Activity (TH2 [37]): Active
Activity (Jurkat [38]): Active
Activity (Dendritic cell): inactive
Activity (Mus musculus [39]): Active
Activity (TH2 [40]): Active
Activity (TH2 [41]): inactive
Activity (TH2 [42]): inactive
Activity (TH2 [43]): inactive
Activity (Jurkat [44]): Active
Activity (Jurkat [45]): inactive
Activity (Jurkat [46]): inactive
Activity (Jurkat [47]): inactive
Activity (Jurkat [48]): inactive
Activity (HEK293 [49]): inactive
Activity (HEK293 [50]): inactive
Activity (HEK293 [51]): inactive
Activity (Jurkat [53]): Active
Activity [54]: 1.7 ng/mL
Activity [55]: 1.8 ng/mL
Activity [56]: 1 ng/mL
Activity [57]: 29.7 ng/mL
Activity (TH1): Active
